Data set [1] is described as follows: Cytotoxicity in CEM cells (TD50) in the standard CEM cell assay for HIV inhibition. The settings on record: human. In kind it is cell-based. The procedure:
(§1) Inhibitory activity against HIV-1 was shown by tests involving plating of susceptible human host cells which are syncytium-sensitive with and without virus in microculture plates, adding various concentrations of the test compound, incubating the plates for 7 to 9 days (during which time infected, non-drug treated control cells are largely or totally destroyed by the virus), and then determining the remaining number of viable cells with a colorometric endpoint.
This is illustrated by a side-by-side comparison between the 2-chloro-N-butyl-DNJ of the present invention and the corresponding 2-fluoro-N-butyl-DNJ disclosed in U.S Pat. No. 5,025,021. […] Moreover, the foregoing illustrative 2-chloro derivative also is a better enzyme inhibitor than the corresponding 2-fluoro derivative. The 2-chloro derivative inhibits α-glucosidase 46% and β-glucosidase 32% at 0.1 mM, whereas the corresponding 2-fluoro derivative inhibits these enzymes at only 8% and 4% at the same concentration according to U.S. Pat. No. 5,025,021.
Assays were done in 96-well tissue culture plates. […]
On the 9th day post-infection, the cells in each well were resuspended and a 100 μl sample of each cell suspension was removed for use in an MTT assay. […] The absorbance at 590 nm was determined for each sample using a Molecular Devices Vmax microplate reader. […]

Another data set relates to HIV-1. The data set can be described thus: Anti-HIV activity: inhibition of HIV-1 induced cytopathic effect in CEM cells, MTT (Method B). The conditions noted are these: Human immunodeficiency virus 1, CCRF-CEM; for inhibition at 10 µg/mL: 10 μg/mL; for inhibition at 100 µg/mL: 100 μg/mL. In kind it is cell-based, strain HTVL-IIIB. The protocol: as §1
(§2) Various illustrative compounds synthesized above were tested for inhibition of visna virus in vitro in a plaque reduction assay (Method A) or for inhibition of HIV-1 in a test which measured reduction of cyto-pathogenic effect in virus-infected syncytium-sensitive Leu-3a-positive CEM cells grown in tissue culture (Method B) as follows:
Tissue culture plates were incubated at 37° C. in a humidified, 5% CO2 atmosphere and observed microscopically for toxicity and/or cytopathogenic effect (CPE). At 1 hour prior to infection each test article was prepared from the frozen stock, and a 20 μl volume of each dilution (prepared as a 10 X concentration) was added to the appropriate wells of both infected and uninfected cells.
Assays were done in 96-well tissue culture plates. CEM cells were treated with polybrene at a concentration of 2 μg/ml, and an 80 μl volume of cells (1×10^4 cells) was dispensed into each well. A 100 μl volume of each test article dilution (prepared as a 2 X concentration) was added to 5 wells of cells, and the cells were incubated at 37° C. for 1 hour. A frozen culture of HIV-1, strain HTVL-IIIB, was diluted in culture medium to a concentration of 5×10^4 TCID50 per ml, and a 20 μl volume (containing 10^3 TCID50 of virus) was added to 3 of the wells for each test article concentration. […] A 20 μl volume of normal culture medium was added to the remaining wells to allow evaluation of cytotoxicity. Each plate contained 6 wells of untreated, uninfected, cell control samples and 6 wells of untreated, infected, virus control samples.
On the 9th day post-infection, the cells in each well were resuspended and a 100 μl sample of each cell suspension was removed for use in an MTT assay. A 20 μl volume of a 5 mg/ml solution of 3-(4,5-dimethylthiazol-2-yl)-2,5-diphenyltetrazolium bromide (MTT) was added to each 100 μl cell suspension, and the cells were incubated at 37° C. in 5% CO2 for 4 hours. […] A 100 μl volume of a solution of 10% sodium dodecyl sulfate in 0.01 N hydrochloric acid was added to each sample, and the samples were incubated overnight. The absorbance at 590 nm was determined for each sample using a Molecular Devices Vmax microplate reader. This assay detects drug-induced suppression of viral CPE, as well as drug cytotoxicity, by measuring the generation of MTT-formazan by surviving cells.

Data set [2] relates to α-glucosidase. The data set can be described thus: α-glucosidase inhibition, conventional in vitro assay (p-nitrophenol release). It is filed as biochemical. The conditions noted are these: 0.1 mM. The protocol:
(§3) Inhibitory activity against α- and β-glucosidase enzymes was determined by conventional in vitro assays for these enzymes as described in U.S. Pat. No. 4,973,602. These assays involve spectrophotometric measurement of the release of p-nitrophenol from the substrate p-nitrophenyl-glycoside in the presence and absence of the test compound and comparison against a control standard that contains a known inhibitor of the enzyme.

The next data set concerns visna virus. Briefly: Inhibition of visna virus growth, plaque reduction assay in sheep choroid plexus (SCP) cells (Method A). In kind it is cell-based. The conditions noted are these: Visna-maedi virus.
Description: Inhibitory activity against visna virus was shown by a conventional plaque reduction assay. Visna virus, a lentivirus genetically very similar to the AIDS virus, is pathogenic for sheep and goats. See Sonigo et al., Cell 42, 369-382 (1985); Haase, Nature 322, 130-136 (1986). Inhibition of visna virus replication in vitro as a useful model for HIV and its inhibition by test compounds has been described by Frank et al., Antimicrobial Agents and Chemotherapy 31 (9), 1369-1374 (1987).
as §2
Sheep choroid plexus (SCP) cells were obtained from American Type Culture Collection (ATCC) catalogue number CRL 1700 and were routinely passaged in vitro in Dulbecco's Modified Eagles (DME) medium supplemented with 20% fetal bovine serum (FBS). SCP cells were passaged once per week at a 1:2 or 1:3 split ratio. Visna was titrated by plaque assay in six-well plates. Virus pools were stored at -70° C.
SCP cells were cultured in 6-well plates to confluence. Wells were washed two times with serum free Minimal Essential Medium (MEM) to remove FBS. 0.2 ml of virus was added per well in MEM supplemented with 4 mM glutamine and gentamycin. After 1 hour adsorption, the virus was aspirated from each well. The appropriate concentration of each compound in 5 ml of Medium 199 (M-199) supplemented with 2% lamb serum, 4 mM glutamine, 0.5% agarose and gentamycin was added to each well. Cultures were incubated at 37° C. in a humidified 5% CO2 incubator for 3-4 weeks. To terminate the test, cultures were fixed in 10% formalin, the agar removed, the monolayers stained with 1% crystal violet and plaques counted. Each compound concentration was run in triplicate. […] 0 is no toxicity observed while 4 is total lysing of the cell monolayer. […]
Control wells without virus were completed to determine the toxicity of compounds.

For data set [3], the system named is β-glucosidase. Briefly: β-glucosidase inhibition, conventional in vitro assay (p-nitrophenol release). The conditions noted are these: 0.1 mM. It is filed as biochemical. The protocol: as §3
The subject of data set [4] is β-glucosidase. The conditions noted are these: 0.1 mM; according to U.S. Pat. No. 5,025,021; cited from earlier work.
Data set [5] has as its system α-glucosidase. The settings on record: 0.1 mM; according to U.S. Pat. No. 5,025,021; cited from earlier work.
Setting [6] is: standard CEM cell assay, side-by-side comparison.

Values after ≈ are worked out from the molar mass of the structure shown. Where two headings read alike, the source gives them in different places.

What is called CC50 is the concentration giving 50% cytotoxicity. Usually inhibition stands for the drop in the measured response relative to a control, in per cent. One may read the EC50 as the concentration needed to bring the measured effect to its halfway point.

In data set [1], `CCCCN1C[C@H](Cl)[C@@H](O)[C@H](O)[C@H]1CO` [Example 27, 1,5-(Butylimino)-2-chloro-1,2,5-trideoxy-D-glucitol] had a CC50 of 187 µg/mL (≈ 787 µM). In the data set on HIV-1 (setting [6]), this compound came in with an inhibition at 10 µg/mL of 29.3% and an inhibition at 100 µg/mL of 62.5%. The EC50 in the data set on HIV-1 (CEM cells, Table 2, read-out: Anti-HIV activity, inhibition of virus induced cytopathic effect, EC50) is 43 µg/mL (≈ 181 µM). For the same compound, in the data set with HIV-1 (standard CEM cell assay, side-by-side comparison, read-out: EC50, HIV inhibition, calculated by linear regression), the EC50 is 43 µg/mL (≈ 181 µM). Besides, the “% inhibition of α-glucosidase” value with α-glucosidase [2] is recorded as 46%. The compound further came in with an inhibition at 10 µM in the data set with visna virus (0.01 mM) of 39%. Also, at 100 µM the inhibition in the data set on visna virus (0.1 mM) was 38%. This compound yielded an inhibition at 1000 µM in the data set on visna virus (1.0 mM) of 99%. Also, the “% inhibition of β-glucosidase” value in the data set on β-glucosidase [3] was 32%.
For `CCCCN1C[C@H](F)[C@@H](O)[C@H](O)[C@H]1CO` [2-fluoro-N-butyl-DNJ, reference compound], in the data set on β-glucosidase [4], the “% inhibition of β-glucosidase” value is 4%. In the data set with HIV-1 (setting [6]), the inhibition at 10 µg/mL came out at 0% and the inhibition at 100 µg/mL came to 0%. The inhibition at 500 µg/mL with HIV-1 (500 μg/mL, standard CEM cell assay, side-by-side comparison, read-out: % inhibition of HIV) stood at 3%. For the same compound, in the data set with α-glucosidase [5], the “% inhibition of α-glucosidase” value is 8%.

(Values after patent publication US5612480A, “2-chloro and 2-bromo derivatives of 1,5-iminosugars” (priority 1995, dated 1997).)
